Measured values reported in patent publication US5593970A, “Heterocyclic anthracycline analogs” (priority 1994, dated 1997).
pIC50: −log10 of the molar value. Counter-ions that a name gives are not always drawn. Like-named read-outs stand apart in the source and are kept apart here.

Tests used:
HT29 [1] = experiment: Soft agar colony formation disk diffusion assay; type: cell-based, human
Description: A more elaborate version of this fundamental assay, the soft agar colony formation disk diffusion assay was used. […] The effect of the test drug against tumoral cells could be measured by its inhibitory capacity against colony formation after the delivery of the compound, in different concentrations on an filter disk(4). A modified technique of this assay was used in order to investigate the antiproliferative activity of candidate compounds. Tumoral cells from solid tumors and ascitic lines were plated separately in a two layer agar matrix. Cell lines to be tested were suspended in an upper layer of 0.4% Noble agar (Difco#00142-01) in RPMI-1066 (Gibco#3201875) at a yield varying between 10^4 to 2×10^5 cells per 60 mm Petri dish. Plating efficiency was determined for each line in order to achieve an optimal number of colonies per dish. […] The bottom layer consisted of 0.8% Noble agar, 0.8% Tryptic Soy Broth (difco#0037001)in CMRL-1066/Fischer's. The bottom layers were used within 2 and 9 days of preparation. Plated dishes (bottom layer of agar, upper layer of cells and administered drug were incubated in humidified atmosphere at 37° C., 5% CO2 for 10-20 days depending upon the time necessary to observe adequate colonies (defined as a cell aggregate of more than 50 cells) both control and drug inhibited. Drugs were administered on a paper filter disk (Whatman No. 1) of 6.5 mm diameter placed on the upper layer at 1/3 distance from the edge of the dish. The anti-clonogenic activity of the compounds was measured as the zone of inhibition from the disk edge to the most proximal colonies. This zone of inhibition was checked on an inverted microscope (40×) and was measured with a micrometer mounted in the eyepiece. The ocular micrometer was calibrated with a stage micrometer set for a particular combination of ocular and objective lenses. […] We made a modification of the initial technique by not plating a solid tumor and a leukemia simultaneously in the same Petri dish. […] HUMAN TUMORS. […] LS180 (13) and BE1(14) were obtained from the Oncology Dept. of the Montreal General Hospital. […] Cell lines were routinely passaged twice a week by trypsinization and maintained in 25, or 75-sq. cm Falcon Plastic flasks at 37° C., 5% CO2 in humidified atmosphere. Both compounds were dissolved in DMSO (1 mg/100 ul) and brought to final volume (250 ul) with Millipore deionized sterile water. Further dilutions were made with […] volume of 25 ul of freshly prepared solution was placed on the filter disk and allowed to dry.

MATB.WT = experiment: Soft agar colony formation disk diffusion assay; type: cell-based, rat
Method in brief: (§1)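 Tumour cells from in vivo-maintained murine tumours or ascites were plated in the upper layer (0.4% Noble agar) of a two-layer soft-agar matrix, with solid and leukemic lines kept separate. Compound dissolved in DMSO/water was dried onto a 6.5 mm filter disk. After 10–20 days at 37 °C, the inhibition zone from disk edge to nearest colony (>50 cells) was measured by micrometer.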

MATB/ADR = experiment: Soft agar colony formation disk diffusion assay; type: cell-based, rat
Method in brief: as §1

B16 = experiment: Soft agar colony formation disk diffusion assay; type: cell-based, murine
Description: (§2) A more elaborate version of this fundamental assay, the soft agar colony formation disk diffusion assay was used. This assay defines the relative activity of one particular drug versus a tumoral cell line type. The effect of the test drug against tumoral cells could be measured by its inhibitory capacity against colony formation after the delivery of the compound, in different concentrations on an filter disk(4). A modified technique of this assay was used in order to investigate the antiproliferative activity of candidate compounds. Tumoral cells from solid tumors and ascitic lines were plated separately in a two layer agar matrix. Cell lines to be tested were suspended in an upper layer of 0.4% Noble agar (Difco#00142-01) in RPMI-1066 (Gibco#3201875) at a yield varying between 10^4 to 2×10^5 cells per 60 mm Petri dish. Plating efficiency was determined for each line in order to achieve an optimal number of colonies per dish. Plates were examined before drug administration to confirm a uniform dispersion of single cells. The bottom layer consisted of 0.8% Noble agar, 0.8% Tryptic Soy Broth (difco#0037001)in CMRL-1066/Fischer's. The bottom layers were used within 2 and 9 days of preparation. Plated dishes (bottom layer of agar, upper layer of cells and administered drug were incubated in humidified atmosphere at 37° C., 5% CO2 for 10-20 days depending upon the time necessary to observe adequate colonies (defined as a cell aggregate of more than 50 cells) both control and drug inhibited. Drugs were administered on a paper filter disk (Whatman No. 1) of 6.5 mm diameter placed on the upper layer at 1/3 distance from the edge of the dish. The anti-clonogenic activity of the compounds was measured as the zone of inhibition from the disk edge to the most proximal colonies. This zone of inhibition was checked on an inverted microscope (40×) and was measured with a micrometer mounted in the eyepiece. The ocular micrometer was calibrated with a stage micrometer set for a particular combination of ocular and objective lenses. […] We made a modification of the initial technique by not plating a solid tumor and a leukemia simultaneously in the same Petri dish. Anti-clonogenic tests performed on leukemia cell line have helped in the discovery of the majority of current clinically used cytostatic drugs. Our tests on solid tumor lines (animal or human) may help define active compounds with solid tumor specificity. […] Murine tumors were maintained IN VIVO in order to diminish the selection of subpopulations of cells normally present in the heterogenous IN VIVO tumor. The actual drug sensitivity assay was done IN VITRO. For these experiments cells from freshly excised tumors or from ascitic fluids were maintained in RPMI-1066. Both compounds were dissolved in DMSO (1 mg/100 ul) and brought to final volume (250 ul) with Millipore deionized sterile water. Further dilutions were made with […] volume of 25 ul of freshly prepared solution was placed on the filter disk and allowed to dry.

M5076 = experiment: Soft agar colony formation disk diffusion assay; type: cell-based, murine
Description: as §2

P388/ADR = experiment: Soft agar colony formation disk diffusion assay; type: cell-based, murine
Description: as §2

P388 = experiment: Soft agar colony formation disk diffusion assay; type: cell-based, murine
Description: as §2

SKOV3 = experiment: Microculture tetrazolium assay; type: cell-based; conditions: read-out: IC50
T47D = experiment: Microculture tetrazolium assay; type: cell-based; conditions: read-out: IC50
LOX = experiment: Microculture tetrazolium assay; type: cell-based; conditions: read-out: IC50
HT29 [2] = experiment: Microculture tetrazolium assay; type: cell-based; conditions: read-out: IC50
LL = experiment: Soft agar colony formation disk diffusion assay; type: cell-based, murine
Description: as §2

Compound | zone of inhibition (HT29 [1]; 10 μg/DISK) | zone of inhibition (HT29 [1]; 100 μg/DISK) | zone of inhibition (MATB.WT; 10 μg/DISK) | zone of inhibition (MATB.WT; 100 μg/DISK) | zone of inhibition (MATB/ADR; 10 μg/DISK) | zone of inhibition (MATB/ADR; 100 μg/DISK) | zone of inhibition (B16; 10 μg/DISK) | zone of inhibition (B16; 100 μg/DISK) | zone of inhibition (M5076; 10 μg/DISK) | zone of inhibition (M5076; 100 μg/DISK) | zone of inhibition (P388/ADR; 10 μg/DISK) | zone of inhibition (P388/ADR; 100 μg/DISK) | zone of inhibition (P388; 10 μg/DISK) | zone of inhibition (P388; 100 μg/DISK) | pIC50 (SKOV3; SKOV3) | pIC50 (T47D) | pIC50 (LOX) | pIC50 (HT29 [2]; HT29) | zone of inhibition (LL; 100 μg/DISK) | pIC50 (SKOV3; Homo sapiens, SK-OV-3, SKOV3) | also measured
3-Carbomethoxy-1,11-dihydroxy-1,2,3,4-tetrahydro-(2-oxygen)naphthacene-5,12-dione 3-Carbomethoxy-1,6-dihydroxy-1,2,3,4-tetrahydro-(2-oxygen)naphthacene-5,12-dione [BCH-711] | 27.0 ± 4.2 Zone Units | 91.5 ± 43.1 Zone Units | 27.0 ± 4.2 Zone Units | 137.0 ± 21.2 Zone Units | 45.5 ± 21.9 Zone Units | 107.0 ± 21.9 Zone Units | 27.0 ± 4.2 Zone Units | 137.0 ± 21.2 Zone Units | 55.0 ± 8.4 Zone Units | 198.0 ± 21.2 Zone Units | 40.0 ± 20.0 Zone Units | 150.0 ± 30.0 Zone Units | 45.5 ± 21.9 Zone Units | 183.0 ± 0.0 Zone Units | 4.95 | 4.91 | 4.94 | 5.25 | – | – | cross resistance with adriamycin, MATB/ADR vs MATB.WT (MATB/ADR): greater cytotoxicity in the resistant breast tumor cell line
COC(=O)[C@@H]1CC2=C(C(=O)c3c(c(OC)c4ccccc4c3O)C2=O)[C@@H](O[C@H]2C[C@H](NC(=O)C(F)(F)F)[C@H](O)[C@H](C)O2)O1 (mixture of isomers) [BCH-674, (1'S,1S,3R) and 1'S,1R,3S) Methyl(11-hydroxy-6-methoxy-1-[2',3',6'-trideoxy-3-trifluoroacetamido-4'-hydroxy-L-lyxohexopyranose]-5,12-dioxo-3,4,5,12-tetrahydroanthra-ceno[2,3-c]pyran-3-yl) formate] | 122.2 ± 80.6 Zone Units | 36.6 ± 17.2 Zone Units | 30.5 ± 13.0 Zone Units | 198.2 ± 21.5 Zone Units | 24.4 ± 8.6 Zone Units | 213.5 ± 25.8 Zone Units | 91.5 ± 60.3 Zone Units | 122.0 ± 86.2 Zone Units | – | – | 0 Zone Units | 150.0 ± 8.0 Zone Units | 30.5 ± 25.8 Zone Units | 137.2 ± 38.8 Zone Units | – | – | 5.69 | – | 115.9 ± 8.0 Zone Units | 5.13 | zone of inhibition (LL; 10 μg/DISK): 54.9 ± 8.6 Zone Units; pIC50 (T47D; Homo sapiens): 5.38; pIC50 (HT29 [2]; Homo sapiens, HT-29, HT29): 5.18
CCOC(=O)C1CC2=C(CO1)C(=O)c1cc3ccccc3c(O)c1C2=O (stereo not drawn) [BCH-653, Ethyl(6 and 11 hydroxy-5,12-dioxo-3,4,5,12-tetrahydro-anthraceno[2,3-c]pyran-3-yl)]formate] | – | 42.7 ± 8.6 Zone Units | – | 0 Zone Units | – | 0 Zone Units | – | 0 Zone Units | – | 85.4 ± 25.8 Zone Units | – | 66.8 ± 8.2 Zone Units | – | 64.0 ± 4.2 Zone Units | – | – | – | – | 18.3 ± 0.0 Zone Units | – | –
CCOC(=O)C1Cc2c(c(OC)c3c(c2OC)C(=O)c2ccccc2C3=O)CS1 (stereo not drawn) [BCH-717] | 0 Zone Units | 0 Zone Units | 0 Zone Units | 0 Zone Units | 0 Zone Units | 0 Zone Units | 0 Zone Units | 106.0 ± 64.3 Zone Units | 18.3 Zone Units | 39.5 ± 30.4 Zone Units | 0 Zone Units | 0 Zone Units | 0 Zone Units | 122.0 ± 0.0 Zone Units | – | – | < 4.00 | – | – | < 4.00 | pIC50 (T47D; Homo sapiens): < 4.00; pIC50 (HT29 [2]; Homo sapiens, HT-29, HT29): < 4.00
CC(=O)Oc1c2c(c(O)c3ccccc13)C(=O)C1=C(CC(C(C)=O)OC1)C2=O (stereo not drawn) [BCH-721] | 55.5 ± 8.0 Zone Units | 121.5 ± 43.1 Zone Units | 33.0 ± 4.2 Zone Units | 143.0 ± 12.7 Zone Units | 45.5 ± 21.9 Zone Units | 137.0 ± 21.2 Zone Units | 76.0 ± 21.2 Zone Units | 198.0 ± 21.2 Zone Units | 78.0 ± 18.3 Zone Units | 259.0 ± 21.2 Zone Units | 21.0 ± 21.2 Zone Units | 183.0 ± 86.2 Zone Units | 45.5 ± 21.9 Zone Units | 137.0 ± 21.2 Zone Units | 4.25 | 4.32 | 4.60 | 4.63 | – | – | –
